The values below come from patent US20260151383A1, “HETEROCYCLIC COMPOUNDS AND USES THEREOF” (KayoThera Inc., priority 2022, published 2026).

Holding throughout (type): biochemical
Conditions in all cases: recombinant enzyme, 20° C., activity level classes

One assay concerns the target T1, mALDH1a3 (Mus musculus, UniProt Q9JHW9).
T1 construct: made in house; host or cells: E. coli BL21-DE3
T1 sequence (Q9JHW9 1-512): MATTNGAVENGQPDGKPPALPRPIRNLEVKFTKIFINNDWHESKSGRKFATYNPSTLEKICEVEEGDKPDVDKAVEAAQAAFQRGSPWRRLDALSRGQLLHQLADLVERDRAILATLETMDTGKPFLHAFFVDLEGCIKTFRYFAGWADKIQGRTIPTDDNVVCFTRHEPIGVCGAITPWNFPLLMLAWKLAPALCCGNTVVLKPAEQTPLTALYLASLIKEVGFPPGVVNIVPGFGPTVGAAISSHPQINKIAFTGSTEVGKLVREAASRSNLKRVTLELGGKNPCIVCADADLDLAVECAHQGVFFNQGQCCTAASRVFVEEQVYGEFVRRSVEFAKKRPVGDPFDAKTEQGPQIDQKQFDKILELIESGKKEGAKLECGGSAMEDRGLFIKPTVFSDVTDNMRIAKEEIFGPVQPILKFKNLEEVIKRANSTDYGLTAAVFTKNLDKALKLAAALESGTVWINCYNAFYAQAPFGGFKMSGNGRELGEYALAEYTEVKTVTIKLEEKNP
The assay is described as follows: Aldh1a3 enzyme inhibition assay (resorufin fluorescence), mouse enzyme. From the text: Recombinant enzyme and inhibitor added immediately before assay. Reaction rate measured by resorufin fluorescence.

For a further assay, the target named is T2, hALDH1a3 (Homo sapiens, UniProt P47895).
T2 construct: made in house; host or cells: E. coli BL21-DE3
T2 sequence (P47895 1-512): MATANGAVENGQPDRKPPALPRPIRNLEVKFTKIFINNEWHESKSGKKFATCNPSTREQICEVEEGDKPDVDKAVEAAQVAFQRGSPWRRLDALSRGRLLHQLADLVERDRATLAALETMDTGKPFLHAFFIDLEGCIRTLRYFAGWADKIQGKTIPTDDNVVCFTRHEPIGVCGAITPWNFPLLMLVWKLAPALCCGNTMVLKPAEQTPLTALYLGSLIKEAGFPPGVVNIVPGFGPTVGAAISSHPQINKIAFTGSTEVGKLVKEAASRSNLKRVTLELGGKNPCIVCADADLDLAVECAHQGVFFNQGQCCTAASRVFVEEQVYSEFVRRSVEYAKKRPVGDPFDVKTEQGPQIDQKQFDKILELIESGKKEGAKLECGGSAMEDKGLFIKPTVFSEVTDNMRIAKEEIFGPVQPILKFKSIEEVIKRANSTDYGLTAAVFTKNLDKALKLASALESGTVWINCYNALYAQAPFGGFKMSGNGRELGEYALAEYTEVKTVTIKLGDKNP
The assay is described as follows: Aldh1a3 enzyme inhibition assay (resorufin fluorescence), human enzyme.

The target of a further assay is T3, hALDH1a2 (Homo sapiens, UniProt O94788).
T3 construct: made in house; host or cells: E. coli BL21-DE3
T3 sequence (O94788 1-518): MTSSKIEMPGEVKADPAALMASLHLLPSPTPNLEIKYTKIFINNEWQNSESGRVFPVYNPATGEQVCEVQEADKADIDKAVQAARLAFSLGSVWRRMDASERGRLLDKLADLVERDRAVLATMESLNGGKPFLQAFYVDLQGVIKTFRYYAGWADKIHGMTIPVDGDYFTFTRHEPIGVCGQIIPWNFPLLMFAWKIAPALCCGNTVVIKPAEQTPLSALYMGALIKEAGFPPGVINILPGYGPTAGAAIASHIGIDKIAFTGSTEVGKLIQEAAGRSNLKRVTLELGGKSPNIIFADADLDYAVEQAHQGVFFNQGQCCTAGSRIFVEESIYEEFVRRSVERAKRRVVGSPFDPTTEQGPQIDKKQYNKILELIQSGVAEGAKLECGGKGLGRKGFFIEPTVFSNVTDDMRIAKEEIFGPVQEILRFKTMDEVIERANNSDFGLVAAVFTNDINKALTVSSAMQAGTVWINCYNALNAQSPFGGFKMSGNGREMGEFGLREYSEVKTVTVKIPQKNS
The assay is described as follows: Aldh1a2 enzyme inhibition assay (resorufin fluorescence), human enzyme. The source says:
(§1) Recombinant enzyme and inhibitor added immediately before assay. Reaction rate measured by resorufln fluorescence.

For a further assay, the target named is T4, mALDH1a2 (Mus musculus, UniProt Q62148).
T4 construct: made in house; host or cells: E. coli BL21-DE3
T4 sequence (Q62148 1-518): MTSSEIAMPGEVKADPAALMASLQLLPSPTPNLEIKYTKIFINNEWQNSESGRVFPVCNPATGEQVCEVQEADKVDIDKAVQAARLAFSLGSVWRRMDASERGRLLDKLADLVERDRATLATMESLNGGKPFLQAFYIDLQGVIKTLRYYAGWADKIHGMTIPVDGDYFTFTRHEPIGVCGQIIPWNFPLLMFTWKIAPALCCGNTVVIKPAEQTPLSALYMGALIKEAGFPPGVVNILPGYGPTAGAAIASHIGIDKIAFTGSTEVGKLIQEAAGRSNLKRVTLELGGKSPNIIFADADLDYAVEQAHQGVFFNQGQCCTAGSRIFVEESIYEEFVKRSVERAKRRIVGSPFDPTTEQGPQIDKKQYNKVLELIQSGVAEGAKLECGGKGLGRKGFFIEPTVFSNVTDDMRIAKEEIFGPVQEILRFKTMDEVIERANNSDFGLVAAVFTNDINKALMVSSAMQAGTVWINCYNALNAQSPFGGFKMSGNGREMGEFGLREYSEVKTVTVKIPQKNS
The assay is described as follows: Aldh1a2 enzyme inhibition assay (resorufin fluorescence), mouse enzyme.
Description: as §1

pIC50: −log10 of the molar value.

`CCc1ncsc1C(=O)Nc1cc(Cl)c2c(c1)CCC(=O)N2` [Compound 36]: the pIC50 (commonly the IC50 on a negative log10 scale, so that one unit is a factor of ten) was greater than 7.00 on mALDH1a3, 6.60 to 7.00 on hALDH1a3, 6.00 to 6.60 on hALDH1a2 and 6.00 to 6.60 on mALDH1a2.

In the case of `O=C(Nc1cc(Cl)c2c(c1)C1CC1C(=O)N2)c1scnc1CC(F)(F)F` (centres unmarked) [Compound 37], the pIC50 at mALDH1a3 is greater than 7.00; on hALDH1a3, 6.60 to 7.00; at hALDH1a2, 6.60 to 7.00; on mALDH1a2, 6.60 to 7.00.

On to `CCc1ncsc1C(=O)Nc1cc(Cl)c2c(c1)C1CC1C(=O)N2` (centres unmarked) [Compound 38], for which the pIC50 is greater than 7.00 at mALDH1a3, 6.60 to 7.00 at hALDH1a3, 6.60 to 7.00 at hALDH1a2 and 6.60 to 7.00 at mALDH1a2.

Regarding `CCc1scnc1C(=O)Nc1cc(C)c2c(c1)C1CC1C(=O)N2` (centres unmarked) [Compound 39], the pIC50 at mALDH1a3, at hALDH1a3, on hALDH1a2 and on mALDH1a2 was 6.00 to 6.60 in each case.

For the compound `Cc1cc(NC(=O)c2ncsc2CC(F)(F)F)cc2c1NC(=O)C1CC21` (centres unmarked) [Compound 40], the pIC50 at mALDH1a3, at hALDH1a3, on hALDH1a2 and at mALDH1a2 was greater than 7.00 throughout.

In the case of `CCc1cnsc1C(=O)Nc1cc(C)c2c(c1)C1CC1C(=O)N2` (centres unmarked) [Compound 41], the pIC50 on mALDH1a3, on hALDH1a3, at hALDH1a2 and at mALDH1a2 was greater than 7.00 each time.

For the compound `O=C(Nc1cc(Cl)c2c(c1)C1CC1C(=O)N2)c1scnc1CC(F)(F)F` (centres unmarked) [Compound 42], the pIC50 is greater than 7.00 on mALDH1a3, 6.60 to 7.00 on hALDH1a3, 6.00 to 6.60 on hALDH1a2 and 5.30 to 6.00 on mALDH1a2.

Take `CCc1ncsc1C(=O)Nc1cc(Cl)c2c(c1)C1CC1C(=O)N2` (centres unmarked) [Compound 43]: the pIC50 on mALDH1a3 was greater than 7.00; at hALDH1a3, 6.60 to 7.00; on hALDH1a2 it was 5.30 to 6.00; on mALDH1a2, 5.30 to 6.00.

On to `CCc1scnc1C(=O)Nc1cc(Cl)c2c(c1)CCC(=O)N2` [Compound 44], for which the negative-log IC50 (pIC50) on mALDH1a3 was 6.60 to 7.00; at hALDH1a3 it was 5.30 to 6.00; at hALDH1a2 it was 5.30 to 6.00; on mALDH1a2 it was 5.30 to 6.00.

For the compound `CCc1scnc1C(=O)Nc1cc2c(c(C3CC3)c1)NC(=O)CC2` [Compound 45], the pIC50 at mALDH1a3 is 6.60 to 7.00; at hALDH1a3 it was 5.30 to 6.00; at hALDH1a2 it was 6.00 to 6.60; on mALDH1a2 it was 6.00 to 6.60.

Regarding `CCc1csnc1C(=O)Nc1cc(C)c2c(c1)C1CC1C(=O)N2` (centres unmarked) [Compound 46], the pIC50 at mALDH1a3 was greater than 7.00; on hALDH1a3, 6.60 to 7.00; at hALDH1a2, 6.60 to 7.00; on mALDH1a2 it was 6.60 to 7.00.

Consider `CCc1cnsc1C(=O)Nc1cc(C)c2c(c1)CCC(=O)N2` [Compound 48], for which the pIC50 on mALDH1a3 is greater than 7.00; on hALDH1a3, 6.60 to 7.00; at hALDH1a2 it was 6.60 to 7.00; at mALDH1a2, 6.60 to 7.00.

Turning to `Cc1cc(NC(=O)c2cnsc2CC(F)(F)F)cc2c1NC(=O)CC2` [Compound 49], the pIC50 on mALDH1a3 is greater than 7.00; on hALDH1a3 it was greater than 7.00; at hALDH1a2, greater than 7.00; at mALDH1a2, 6.60 to 7.00.

Turning to `CCc1sncc1C(=O)Nc1cc(C)c2c(c1)CCC(=O)N2` [Compound 50], the negative-log IC50 (pIC50) was greater than 7.00 at mALDH1a3, 6.00 to 6.60 at hALDH1a3, 6.00 to 6.60 on hALDH1a2 and 6.00 to 6.60 at mALDH1a2.
